Test results taken from US20200338028A1, “BENZENESULFONAMIDE DERIVATIVES AND METHOD FOR MODULATING LIPID RAFT” (Gongwin Biopharm Co., Ltd., priority 2017, published 2020).
Like-named read-outs stand apart in the source and are kept apart here.

Columns and labels:
[1] = system: PC-3 cells; assay: CFSE staining, flow cytometric proliferation index; assay type: cell-based, human; details: PC-3, 48 h
Procedure: (§1) The anti-proliferative effect was further examined by CFSE staining. CFSE is a fluorescent cell staining dye for cell-tracking, and it was conjugated to intracellular proteins and was evenly inherited by divided cells after cell proliferation. Consequently, the fluorescence-staining was distributed to later generations of cells with the passage of time. The process for CFSE staining was performed as follows. CFSE was dissolved in DMSO to constitute a storage solution of 10 mM and was kept at −20° C. until use. The PC-3 and DU-145 cells were adjusted to a density of 10^6 cells/ml and were treated with CFSE at a final concentration of 10 μM in tubes. After incubation at 37° C. for 10 min, labeling was blocked by the addition of RPMI medium with 10% FBS. The tubes were placed on ice for 5 min and then washed. After centrifugation of the tubes, the cells were seeded in RPMI medium with 10% FCS in the absence or presence of p-TSA for 48 h at 37° C. under 5% CO2/95% air condition. The fluorescence intensity was determined by flow cytometric analysis. The cell proliferation was assessed by monitoring the decrease in label intensity in daughter cells. The proliferation index and the cell populations of parent or different generations were calculated by using Modfit LT Version 3.2 and WinList Version 5.0 software.

[2] = system: DU-145 cells; assay: CFSE staining, flow cytometric proliferation index; assay type: cell-based, human; details: DU-145, 48 h
Procedure: as §1

[3] = system: PC-3 cells; assay: colony formation (clonogenic) assay; assay type: cell-based, human; details: for IC50: Homo sapiens, PC-3, 240 h, 10 days, FIG. 4F, read-out: IC50, growth inhibition, colony formation assay
Procedure: To assay the anchorage-dependent clonogenic effect, each individual PC-3 and DU-145 cells (150 cells/well) were seeded in a 6-well plate. After a 10-day treatment with p-TSA, the cell colonies were rinsed with phosphate-buffered saline (PBS), stained with 0.4% (w/v) crystal violet dissolved in 20% methanol, and lysed by 50 mM sodium citrate dissolved in 50% ethanol. The absorbance was read at a wavelength of 595 nm.
To further substantiate the role of Akt, the Myr-Akt overexpressed PC-3 cells were prepared with the method shown as follows. The plasmid encoding Myr-Akt, an N-terminally myristoylation signal-attached Akt, was a gift from Professor Mien-Chie Hung (The University of Texas, M.D. Anderson Cancer Center). For transfection, PC-3 cells were seeded into 60-mm tissue culture dishes with 30% confluence and grown for 24 h to 50-60% confluence. Each dish was washed with serum-free Opti-MEM (Life Technologies), and 2 ml of the serum-free Opti-MEM was then added. Aliquots containing Myr-Akt expression vector or a control plasmid in serum-free Opti-MEM were transfected into cells using Lipofectamine 2000 (Invitrogen) following the manufacturer's instructions. After incubation for 6 h at 37° C., cells were washed with serum-free Opti-MEM and incubated in 10% FBS-containing RPMI-1640 medium for 48 h. The cells were treated with or without p-TSA and then the related analyses were performed. […] Furthermore, the functional rescue of Myr-Akt was determined. […] However, overexpression of Myr-Akt had minimal effect on p-TSA-induced cyclin D1 down-regulation.

[4] = system: DU-145 cells; assay: SRB assay, anti-proliferative effect; assay type: cell-based; details: Homo sapiens; DU-145, SRB assay, FIG. 1A; read-out: IC50, inhibition of cell growth
Procedure: Two castration-resistant prostate cancer (CRPC) cell lines of PC-3 and DU-145 were cultured in RPMI 1640 medium with 5% FBS (v/v), penicillin (100 units/ml) and streptomycin (100 μg/ml). Cultures were maintained in a 37° C. incubator with 5% CO2, and adherent cultures were passaged using 0.05% trypsin-EDTA when they reached about 80% confluence. Prostate cells were from human tissue samples which were obtained following informed consent of the donors and after full review by the Ethics Review Committee at National Taiwan University Hospital. The prostate specimens were from males by transurethral resection of the prostate. All patients with prostatism histories were diagnosed to have benign prostate hyperplasia by rectal digital examination, transrectal sonography of prostate and urodynamic studies. […] SRB assay is an accurate and reproducible assay based upon quantitative SRB staining of cellular proteins, and the process for SRB assay was performed as follows. […] The absorbance of SRB was measured at a wavelength of 515 nm at the time of p-TSA addition (hereinafter referred to as time zero, TZ), and after additional incubation of DMSO (hereinafter referred to as control growth, CTL) or p-TSA (hereinafter referred to as Tx). The percentage of cell growth inhibition was calculated by the formula of [1−(Tx−TZ)/(CTL−TZ)]×100%. […]

Cc1ccc(S(N)(=O)=O)cc1 [p-TSA, para-toluenesulfonamide]
proliferation index based on CFSE staining [1]: concentration-dependent inhibition
proliferation index based on CFSE staining [2]: concentration-dependent inhibition
IC50 ([3]; PC-3 overexpressing constitutively active Myr-Akt): 680 ± 20 µM
IC50 ([3]; PC-3 without Myr-Akt overexpression): 580 ± 20 µM
anti-proliferative effect, clonogenic assay ([3]; PC-3, 10 days, FIG. 1B): long-term anti-proliferative effect
IC50 [4]: ~3000 µM
